Assay results: the supplement of paper PMC10307832

Experiments:
Assay in all cases: relative viability (nuclei count vs DMSO), 5 days (fraction); higher = more cells survive
Idelalisib + Phenformin = compound: CC[C@H](Nc1ncnc2[nH]cnc12)c1nc2cccc(F)c2c(=O)n1-c1ccccc1 [Idelalisib] + N=C(N)NC(=N)NCCc1ccccc1 [Phenformin] (partner 250 µM)
Method in brief: (§1)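 Relative viability equals treated-well nuclei counts divided by vehicle-well nuclei counts. Counts came from 4× images of lung cancer cell lines grown in 1536-well plates for 5 days after pin-tool dosing on the day after seeding. Dosing used one drug alone or a fixed anchor-drug dose plus five library-drug doses (not always all listed) in √10 steps, and values are medians of duplicate plates.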

Idelalisib + Trametinib = compound: CC[C@H](Nc1ncnc2[nH]cnc12)c1nc2cccc(F)c2c(=O)n1-c1ccccc1 [Idelalisib] + CC(=O)Nc1cccc(-n2c(=O)n(C3CC3)c(=O)c3c(Nc4ccc(I)cc4F)n(C)c(=O)c(C)c32)c1 [Trametinib] (partner 0.02 µM)
Method in brief: as §1

Idelalisib + Decitabine = compound: CC[C@H](Nc1ncnc2[nH]cnc12)c1nc2cccc(F)c2c(=O)n1-c1ccccc1 [Idelalisib] + Nc1ncn([C@H]2C[C@H](O)[C@@H](CO)O2)c(=O)n1 [Decitabine] (partner 2 µM)
Method in brief: as §1

Pemetrexed + Linsitinib = compound: Nc1nc2[nH]cc(CCc3ccc(C(=O)N[C@@H](CCC(=O)O)C(=O)O)cc3)c2c(=O)[nH]1 [Pemetrexed] + C[C@]1(O)C[C@@H](c2nc(-c3ccc4ccc(-c5ccccc5)nc4c3)c3c(N)nccn32)C1 [Linsitinib] (partner 1 µM)
Method in brief: as §1

Row | Cell Line | relative viability (Idelalisib + Phenformin; first compound 0.04 µM) | relative viability (Idelalisib + Phenformin; first compound 0.1265 µM) | relative viability (Idelalisib + Phenformin; first compound 0.4 µM) | relative viability (Idelalisib + Phenformin; first compound 1.265 µM) | relative viability (Idelalisib + Phenformin; first compound 4 µM) | relative viability (Idelalisib + Trametinib; first compound 0.04 µM) | relative viability (Idelalisib + Trametinib; first compound 0.1265 µM) | relative viability (Idelalisib + Trametinib; first compound 0.4 µM) | relative viability (Idelalisib + Trametinib; first compound 1.265 µM) | relative viability (Idelalisib + Trametinib; first compound 4 µM) | relative viability (Idelalisib + Decitabine; first compound 0.04 µM) | relative viability (Idelalisib + Decitabine; first compound 0.1265 µM) | relative viability (Idelalisib + Decitabine; first compound 0.4 µM) | relative viability (Idelalisib + Decitabine; first compound 1.265 µM) | relative viability (Idelalisib + Decitabine; first compound 4 µM) | relative viability (Pemetrexed + Linsitinib; first compound 0.002 µM) | relative viability (Pemetrexed + Linsitinib; first compound 0.006325 µM) | relative viability (Pemetrexed + Linsitinib; first compound 0.02 µM) | relative viability (Pemetrexed + Linsitinib; first compound 0.06325 µM) | relative viability (Pemetrexed + Linsitinib; first compound 0.2 µM)
1 | HCC-15 | 0.498 | 0.511 | 0.389 | 0.587 | 0.5 | 0.379 | 0.29 | 0.315 | 0.356 | 0.332 | 0.687 | 0.692 | 0.547 | 0.82 | 0.622 | 0.857 | 0.773 | 0.922 | 0.753 | 0.518
2 | HCC-44 | 0.201 | 0.229 | 0.177 | 0.235 | 0.153 | 1.07 | 1.04 | 1.08 | 1.06 | 0.941 | 1.07 | 0.927 | 0.978 | 0.98 | 0.91 | 0.598 | 0.625 | 0.73 | 0.665 | 0.536
3 | HCC-78 | 0.945 | 0.647 | 0.582 | 0.751 | 0.674 | 0.68 | 0.702 | 0.711 | 0.704 | 0.542 | 0.738 | 0.731 | 0.667 | 0.647 | 0.665 | – | 0.384 | 0.482 | 0.26 | 0.18
4 | HCC-366 | 0.597 | 0.639 | 0.619 | 0.632 | 0.679 | 0.362 | 0.464 | 0.274 | 0.354 | 0.233 | 0.348 | 0.395 | 0.309 | 0.372 | 0.299 | 0.675 | 0.513 | 0.677 | 0.707 | 0.567
5 | HCC-827 | 0.424 | 0.393 | 0.37 | 0.352 | 0.323 | 0.578 | 0.517 | 0.473 | 0.476 | 0.424 | 0.379 | 0.246 | 0.347 | 0.331 | 0.286 | 0.843 | 0.946 | 1.02 | 0.997 | 0.846
6 | HOP-62 | 0.558 | 0.656 | 0.589 | 0.672 | 0.654 | 0.345 | 0.354 | 0.292 | 0.362 | 0.247 | 0.277 | 0.199 | 0.262 | 0.231 | 0.235 | 0.903 | 0.788 | 0.959 | 0.671 | 0.922
7 | IA-LM | – | – | – | – | – | – | – | – | – | – | – | – | – | – | – | 0.484 | 0.488 | 0.784 | 0.702 | 0.644
8 | LC-2-ad | 0.602 | 0.592 | 0.462 | 0.626 | 0.546 | 0.963 | 0.957 | 0.931 | 1.02 | 0.806 | 0.789 | 0.797 | 0.811 | 0.825 | 0.711 | 0.811 | 0.83 | 0.819 | 0.24 | 0.188
9 | NCI-H522 | 0.675 | 0.66 | 0.641 | 0.761 | 0.634 | 0.76 | 0.646 | 0.668 | 0.727 | 0.731 | 0.665 | 0.67 | 0.645 | 0.631 | 0.698 | – | – | – | – | –
10 | NCI-H1299 | – | – | – | – | – | – | – | – | – | – | – | – | – | – | – | 0.926 | 0.929 | 1.07 | 0.992 | 0.471
11 | NCI-H1563 | 0.666 | 0.666 | 0.612 | 0.631 | 0.638 | – | – | – | – | – | – | – | – | – | – | 1.1 | 1.13 | 1.17 | 1.18 | 1.17
12 | NCI-H1623 | 0.596 | 0.619 | 0.537 | 0.529 | 0.547 | – | – | – | – | – | – | – | – | – | – | – | – | – | – | –
13 | NCI-H1648 | – | – | – | – | – | 0.418 | 0.482 | 0.423 | 0.433 | 0.397 | 0.512 | 0.58 | 0.536 | 0.507 | 0.429 | – | – | – | – | –
14 | NCI-H1650 | 0.439 | 0.341 | 0.35 | 0.371 | 0.379 | 0.524 | 0.46 | 0.618 | 0.51 | 0.575 | 0.456 | 0.465 | 0.515 | 0.359 | 0.448 | – | – | – | – | –
15 | NCI-H1703 | – | – | – | – | – | – | – | – | – | – | – | – | – | – | – | 0.889 | 0.943 | 1.08 | 0.64 | 0.731
16 | NCI-H2170 | 0.443 | 0.449 | 0.403 | 0.408 | 0.373 | 1.05 | 0.941 | 0.851 | 0.893 | 0.805 | 0.507 | 0.471 | 0.505 | 0.438 | 0.417 | – | – | – | – | –
17 | NCI-H2228 | 0.348 | 0.371 | 0.162 | 0.221 | 0.235 | 0.49 | 0.684 | 0.429 | 0.583 | 0.381 | – | – | – | – | – | 0.708 | 0.472 | 0.906 | 0.553 | 0.425
18 | NCI-H2342 | 0.597 | 0.584 | 0.514 | 0.614 | 0.482 | 0.804 | 0.851 | 0.779 | 0.753 | 0.658 | 0.802 | 0.764 | 0.658 | 0.668 | 0.618 | – | – | – | – | –
19 | SW 900 | 0.683 | 0.458 | 0.634 | 0.614 | 0.395 | 0.854 | 0.861 | 0.856 | 0.667 | 0.734 | 0.387 | 0.415 | 0.505 | 0.498 | 0.377 | – | – | – | – | –
